Experimental data taken from patent US20230413816A1, “COMPOSITIONS COMPRISING ALLYL SULFIDE AND A SURFACTANT AND METHODS OF USING SAME” (The State of Israel, Ministry of Agriculture & Rural …, priority 2020, published 2023).

Experiments:
[1] = tested on: Grapevines; test: Bud break scored on the BBCH scale, commercial vineyard in South Africa (Example 3); type: in vivo, grapevine; settings: for bud-breaking efficiency compared with commercially available agents (HC): sulfide compound with 2% w/w T7; for bud break score (BBCH scale): 36 days after treatment, untreated score 19
From the text: FIGS. 5A-5B are bar graphs presenting a comparison between the bud break efficiency of the exemplary compositions of the invention and controls in vine. The X-axis represents different treatments, and the Y-axis represents vine growth stage according to the BBCH scale, as scored 36 days after treatment. FIG. 5A represents a comparison between the synergistic bud break efficiency of T7 in combination with different sulfide compounds (DADS and dimethyl sulfide, DMS). 1—untreated vines (negative control); 2—2.5% w/w DMS and 2% w/w T7; 3—5% w/w DMS and 2% w/w T7; 4—HC (positive control); 5—5% w/w DADS and 2% w/w T7. FIG. 5B represents a comparison between the synergistic bud break efficiency of 6% w/w DADS in combination with various concentrations of T7 (entries 4-7) versus controls (entries 1-2, and 8). 1—untreated vines (negative control); 2—12% w/w T7 no DADS; 3—6% w/w DADS no T7; 4—6% w/w DADS and 12% w/w T7; 5—6% w/w DADS and 1% w/w T7; 6—6% w/w DADS and 2% w/w T7; 7—6% w/w DADS and 0.5% w/w T7; 8—HC (positive control).
Grapevines in a commercial vineyard in South Africa were sprayed exemplary agricultural compositions of the invention. Two different experimental treatments have been performed on 5 blocks of 14 vines. The bud break efficiency of each treatment has been evaluated by scoring 60 buds per vine according to BBCH scale at different time points after treatment. BBCH values represent average values of five blocks per treatment. The tested exemplary agricultural compositions utilized for each experimental treatment were as follows: • 2% w/w of T7 (see Table 1) together with various concentrations (2.5, 5 and 6% w/w) of the sulfide compound ([…] (DMS); and DADS). The effect of these treatments was compared to a commercial formulation comprising 50% HC; as well as to a negative control, i.e. untreated vines. The results of this experiment are represented in FIG. 5A. • 6% w/w DADS together with various concentrations (0.5, 1, 2 and 12% w/w) of T7. The effect of these treatments was compared to a commercial formulation comprising 50% HC; as well as to negative controls including untreated plant, and plants treated with 12% w/w T7 and 6% w/w DADS, respectively. The results of this experiment are represented in FIG. 5B.

[2] = tested on: whole vine; settings: applied to the whole vine rather than to cuttings; cited from earlier work
[3] = tested on: spur-pruned cv. Early Sweet vines; test: Bud breaking on whole vines in a vineyard (Example 1, Jordan Valley); type: in vivo, grapevine
Protocol: FIG. 1 is a graph presenting a comparison between the bud break efficiency of the exemplary compositions of the invention and controls, when applied to spur-pruned cv. Early Sweet vines at the beginning of January in a vineyard located at Argaman, the Jordan Valley, Israel. Bud counts were conducted once a week and started about […] after treatment. The tested combinations were as follows: (a) DADS at 6% w/w, together with (b) 2% w/w of a non-ionic surfactant (abbreviated as T3-D2, T4-D2, T5-D2, T6-D2 or T7-D2, respectively) or of a cationic surfactant (Armobreak®, abbreviated as T1-D2). The controls were as follows: (a) plants treated with Triton X-100 (abbreviated as Con), and (b) single treatments with DADS, HC, and the surfactants (abbreviated as T1, T3, T4, T5, T6 or T7, respectively). The chemical structures of the surfactants are as represented in Table 1, below. The Y-axis represents the percentage of the bursting buds out of the total number of the buds on a vine.
The Y-axis represent the percentage of bursting basal buds out of total number of spurs on a vine.
Mature spur-pruned cv. […]
Each formulation was sprayed onto five blocks of two vines, wherein the values presented in FIG. 1 are an average of the ten tested grapevines. […] Total number of buds was recorded once for each vine, and number of bursting buds were recoded for each vine at 22, 27, 34 and 41 d after treatment.

[4] = tested on: Kiwi plants; test: Bud break trial on kiwi (Example 4); type: in vivo; settings: 49 days after treatment
From the text: The inventors performed numerous experiments to assess the effect of application of an exemplary composition of the invention (e.g. about 6% w/w DADS and about 4% w/w T7) on bud break in various plants. For each test from about 500 to about 1500 l/ha of the composition have been applied (e.g. by spraying) to the orchard, to result in almost complete wetting of the treated plants. The tested plant species included kiwi, cherry, apple, and plum.

Compound	bud-breaking efficiency compared with commercially available agents (HC) [1]	bud break enhancing effect compared with HC [2]	bud break score (BBCH scale) ([1]; 2.5% w/w DMS and 2% w/w T7)	bud break score (BBCH scale) ([1]; 5% w/w DMS and 2% w/w T7)	bud break efficiency, ranking among the treatments of FIG. 1 ([3]; 6% w/w DADS + 2% w/w surfactant, or HC, percentage of bursting buds)	bud break uniformity along a spur ([3]; FIG. 3, basal buds)	bud break [4]	bud break of HC relative to the composition of the invention (times less) [4]	green foliage coverage score (of 10) [4]
C=CCSSCC=C [DADS, diallyl disulfide]	comparable with the efficiency of commercially available agents	very limited and inferior to HC							
CSC [DMS, dimethyl sulfide]	comparable with the efficiency of commercially available agents		24	30-31					
N#CN [HC, hydrogen cyanamide]					superior	significantly less uniform bud break	24%	~2 times	2
